Counter-ions that a name gives are not always drawn.

In this assay the test system is clot lysis (fibrinolysis) in diluted human citrated plasma, tPA-induced. The experiment in a line: Plasma-based clot lysis assay (5%). The assay is classed as biochemical. The settings on record: human citrated platelet-poor plasma 5%, fibrinogen 3 μM, CaCl2 10 mM, tPA 0.2 nM, 37° C., OD at 405 nm. The method in brief: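 Clot formation and breakdown triggered by CaCl2 (10 mM final) plus tPA (0.2 nM final) at 37° C, in 5% diluted human plasma supplemented with 3 μM fibrinogen (HEPES/NaCl/Brij buffer, pH 7). IC50 obtained from time courses relative to a blank control.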
For the compound `COC(=O)c1ccc(-c2noc(-c3cnn4c(C5CCNCC5)cc(=O)[nH]c34)n2)cc1` [Example 204, Methyl 4-{5-[5-oxo-7-(piperidin-4-yl)-4,5-dihydropyrazolo[1,5-a]pyrimidin-3-yl]-1,2,4-oxadiazol-3-yl}benzoate hydrochloride], the IC50 – broadly, the concentration needed to halve the response being measured – was 35 nM.

`Cc1ccc(-c2csc(-c3cnn4c(C5CCNCC5)cc(=O)[nH]c34)n2)c(C)c1` [Example 312, 3-[4-(2,4-dimethylphenyl)-1,3-thiazol-2-yl]-7-(piperidin-4-yl)pyrazolo[1,5-a]pyrimidin-5(4H)-one hydrochloride]: the midpoint of inhibition, the IC50, lay at 22 nM.

Consider `CC(c1ccccc1)c1noc(-c2cnn3c(C4CCNCC4)cc(=O)[nH]c23)n1` (centres unmarked) [Example 215, 3-[3-(1-phenylethyl)-1,2,4-oxadiazol-5-yl]-7-(piperidin-4-yl)pyrazolo[1,5-a]pyrimidin-5(4H)-one hydrochloride], for which half-maximal inhibition (IC50) required 34 nM. Turning to `Cc1nn2c(C3CCNCC3)cc(=O)[nH]c2c1-c1nnc(-c2ccccc2F)o1` [Example 445, 3-[5-(2-fluorophenyl)-1,3,4-oxadiazol-2-yl]-2-methyl-7-(piperidin-4-yl)pyrazolo[1,5-a]pyrimidin-5(4H)-one hydrochloride], the IC50 was 56 nM. Consider `CCC(=O)N1CCN(C(=O)c2cnn3c(C4CCNCC4)cc(=O)[nH]c23)CC1` [Example 98, 7-(piperidin-4-yl)-3-[(4-propanoylpiperazin-1-yl)carbonyl]pyrazolo[1,5-a]pyrimidin-5(4H)-one hydrochloride], for which the IC50 is 90 nM. As for `COCC(C)(C)c1noc(-c2cnn3c(C4CCNCC4)cc(=O)[nH]c23)n1` [Example 105, 3-[3-(1-methoxy-2-methylpropan-2-yl)-1,2,4-oxadiazol-5-yl]-7-(piperidin-4-yl)pyrazolo[1,5-a]pyrimidin-5(4H)-one], the figure is 95 nM; as for `Cc1nn2c(C3CCNCC3)cc(=O)[nH]c2c1-c1nc(-c2cccc(Cl)c2)no1` [Example 441, 3-[3-(3-chlorophenyl)-1,2,4-oxadiazol-5-yl]-2-methyl-7-(piperidin-4-yl)pyrazolo[1,5-a]pyrimidin-5(4H)-one hydrochloride], 29 nM.

Compound `O=c1cc(C2CCNCC2)n2ncc(S(=O)(=O)c3ccc(Cl)cc3Cl)c2[nH]1` [Example 74, 3-[(2,4-Dichlorophenyl)sulfonyl]-7-(piperidin-4-yl)pyrazolo[1,5-a]pyrimidin-5(4H)-one hydrochloride] had an IC50 of 18 nM. `Cc1ccc(-c2csc(-c3cnn4c(C5CCNCC5)cc(=O)[nH]c34)n2)cc1` [Example 309, 3-[4-(4-methylphenyl)-1,3-thiazol-2-yl]-7-(piperidin-4-yl)pyrazolo[1,5-a]pyrimidin-5(4H)-one hydrochloride] displayed an IC50 of 41 nM.

Regarding `CCCOC(=O)c1c(C)nn2c(C3CCNCC3)cc(=O)[nH]c12` [Example 365, Propyl 2-methyl-5-oxo-7-(piperidin-4-yl)-4,5-dihydropyrazolo[1,5-a]pyrimidine-3-carboxylate hydrochloride], half-maximal inhibition (IC50) required 38 nM. For the compound `O=c1cc(C2CCNCC2)n2ncc(-c3nc(CCCC(F)(F)F)no3)c2[nH]1` [Example 192, 7-(piperidin-4-yl)-3-[3-(4,4,4-trifluorobutyl)-1,2,4-oxadiazol-5-yl]pyrazolo[1,5-a]pyrimidin-5(4H)-one hydrochloride], it took 34 nM to reach half-maximal inhibition (IC50). As for `COc1ccc(-c2noc(-c3cnn4c(C5CCNCC5)cc(=O)[nH]c34)n2)c(C)c1` [Example 154, 3-[3-(4-methoxy-2-methylphenyl)-1,2,4-oxadiazol-5-yl]-7-(piperidin-4-yl)pyrazolo[1,5-a]pyrimidin-5(4H)-one hydrochloride], the figure is 24 nM; as for `O=C(N=S1(=O)CCOCC1)c1cnn2c(C3CCNCC3)cc(=O)[nH]c12` [Example 37, N-(4-Oxido-1,4-lambda^4-oxathian-4-ylidene)-5-oxo-7-(piperidin-4-yl)-4,5-dihydropyrazolo[1,5-a]pyrimidine-3-carboxamide hydrochloride], 29 nM. As for `Cc1nn2c(C3CCNCC3)cc(=O)[nH]c2c1C(=O)OCC(F)F` [Example 465, 2,2-difluoroethyl 2-methyl-5-oxo-7-(piperidin-4-yl)-4,5-dihydropyrazolo[1,5-a]pyrimidine-3-carboxylate hydrochloride], the figure is 40 nM. The compound `O=c1cc(C2CCNCC2)n2ncc(-c3cccc(C(F)(F)F)c3)c2[nH]1` [Example 58, 7-(Piperidin-4-yl)-3-[3-(trifluoromethyl)phenyl]pyrazolo[1,5-a]pyrimidin-5(4H)-one hydrochloride] showed an IC50 of 16 nM. In the case of `O=c1cc(C2CCNCC2)n2ncc(-c3nnc(CCN4CCOCC4)o3)c2[nH]1` [Example 282, 3-{5-[2-(morpholin-4-yl)ethyl]-1,3,4-oxadiazol-2-yl}-7-(piperidin-4-yl)pyrazolo[1,5-a]pyrimidin-5(4H)-one hydrochloride], the IC50 was found to be 34 nM.

For the compound `O=c1cc(C2CCNCC2)n2ncc(-c3nc(-c4ccc(C(F)(F)F)cc4)no3)c2[nH]1` [Example 113, 7-(Piperidin-4-yl)-3-{3-[4-(trifluoromethyl)phenyl]-1,2,4-oxadiazol-5-yl}pyrazolo[1,5-a]pyrimidin-5(4H)-one hydrochloride], the IC50 turned out to be 44 nM. As for `Cc1nn2c(C3CCNCC3)cc(=O)[nH]c2c1C(=O)N1CCC(F)(F)C1` [Example 429, 3-[(3,3-difluoro-pyrrolidin-1-yl)carbonyl]-2-methyl-7-(piperidin-4-yl) pyrazolo[1,5-a] pyrimidin-5(4H)-one hydrochloride], the figure is 30 nM; as for `Cc1nn2c(C3CCNCC3)cc(=O)[nH]c2c1C(=O)N1CCC(C)CC1` [Example 416, 2-methyl-3-[(4-methyl-piperidin-1-yl)carbonyl]-7-(piperidin-4-yl) pyrazolo[1,5-a] pyrimidin-5(4H)-one hydrochloride], 31 nM. In turn, `O=c1cc(C2CCNCC2)n2ncc(-c3noc(-c4ccc(C(F)(F)F)cc4)n3)c2[nH]1` [Example 231, 7-(piperidin-4-yl)-3-{5-[4-(trifluoromethyl)phenyl]-1,2,4-oxadiazol-3-yl}pyrazolo[1,5-a]pyrimidin-5(4H)-one hydrochloride] had an IC50 of 34 nM. The compound `O=c1cc(C2CCNCC2)n2ncc(-c3nnc(Cc4c(F)cccc4Cl)o3)c2[nH]1` [Example 279, 3-[5-(2-chloro-6-fluorobenzyl)-1,3,4-oxadiazol-2-yl]-7-(piperidin-4-yl)pyrazolo[1,5-a]pyrimidin-5(4H)-one hydrochloride] yielded an IC50 of 25 nM. Turning to `N#Cc1c(Br)nn2c(C3CCNCC3)cc(=O)[nH]c12` [Example 374, 2-bromo-5-oxo-7-(piperidin-4-yl)-4,5-dihydropyrazolo[1,5-a]pyrimidine-3-carbonitrile hydrochloride], the IC50 is 34 nM. For `O=c1cc(C2CCNCC2)n2ncc(-c3noc(C4CCCC4)n3)c2[nH]1` [Example 385, 3-(5-Cyclopentyl-1,2,4-oxadiazol-3-yl)-7-(piperidin-4-yl)pyrazolo[1,5-a]pyrimidin-5(4H)-one hydrochloride], the IC50 came to 14 nM. `O=c1cc(C2CCNCC2)n2ncc(-c3nc(-c4cccc(Cl)n4)no3)c2[nH]1` [Example 133, 3-[3-(6-Chloropyridin-2-yl)-1,2,4-oxadiazol-5-yl]-7-(piperidin-4-yl)pyrazolo[1,5-a]pyrimidin-5(4H)-one hydrochloride] returned a half-maximal inhibitory concentration (IC50) of 39 nM. For the compound `COc1ccc(-c2noc(-c3cnn4c(C5CCNCC5)cc(=O)[nH]c34)n2)cc1Cl` [Example 142, 3-[3-(3-Chloro-4-methoxyphenyl)-1,2,4-oxadiazol-5-yl]-7-(piperidin-4-yl)pyrazolo[1,5-a]pyrimidin-5(4H)-one hydrochloride], the IC50 was 41 nM.

`Cc1nn2c(C3CCNCC3)cc(=O)[nH]c2c1C(=O)OCC(C)(F)F` [Example 461, 2,2-difluoropropyl 2-methyl-5-oxo-7-(piperidin-4-yl)-4,5-dihydropyrazolo[1,5-a]pyrimidine-3-carboxylate hydrochloride] showed an IC50 of 61 nM. `O=c1cc(C2CCNCC2)n2ncc(-c3noc(C4CC(F)(F)C4)n3)c2[nH]1` [Example 392, 3-(5-(3,3-difluorocyclobutyl)-1,2,4-oxadiazol-3-yl)-7-(piperidin-4-yl)pyrazolo[1,5-a]pyrimidin-5(4H)-one hydrochloride]: inhibition was half-maximal at 27 nM (IC50). With `Cc1nn2c(C3CCNCC3)cc(=O)[nH]c2c1C(=O)N1CCCC1` [Example 415, 2-methyl-7-(piperidin-4-yl)-3-(pyrrolidin-1-ylcarbonyl) pyrazolo[1,5-a] pyrimidin-5(4H)-one hydrochloride], 61 nM corresponded to half-maximal inhibition (IC50). `O=c1cc(C2CCNCC2)n2ncc(-c3nnc(-c4ccccc4F)o3)c2[nH]1` [Example 186, 3-[5-(2-fluorophenyl)-1,3,4-oxadiazol-2-yl]-7-(piperidin-4-yl)pyrazolo[1,5-a]pyrimidin-5(4H)-one hydrochloride]: the IC50 is 34 nM.

Turning to `Cc1nn2c(C3CCNCC3)cc(=O)[nH]c2c1C(=O)NC1CCC1` [Example 422, N-cyclobutyl-2-methyl-5-oxo-7-(piperidin-4-yl)-4,5-dihydro-pyrazolo[1,5-a] pyrimidine-3-carboxamide hydrochloride], the IC50 stood at 23 nM. Next, `CC(C)CNC(=O)c1c(-c2ccccc2)nn2c(C3CCNCC3)cc(=O)[nH]c12` [Example 44, trifluoroacetate]: 23 nM.

The compound `O=c1cc(C2CCNCC2)n2ncc(-c3nnc(-c4ccccc4C(F)(F)F)o3)c2[nH]1` [Example 172, 7-(piperidin-4-yl)-3-{5-[2-(trifluoromethyl)phenyl]-1,3,4-oxadiazol-2-yl}pyrazolo[1,5-a]pyrimidin-5(4H)-one hydrochloride] had an IC50 of 59 nM.

(Values after patent publication US10118930B2, “Piperidinylpyrazolopyrimidinones and their use” (BAYER PHARMA AKTIENGESELLSCHAFT, priority 2015, dated 2018).)
